Experimental data published in patent US12187710B2, “Salt of Syk inhibitor and crystalline form thereof” (CHIA TAI TIANQING PHARMACEUTICAL GROUP CO., LTD., priority 2018, dated 2025).
Where a name gives a salt, the structure may show the parent alone.

Experiments:
[1] = Stability of crystalline form at high temperature, high humidity and illumination (XRPD); format: physicochemical
Source text: The vials in which the samples were placed at high temperature and high humidity were sealed with aluminum foil, and small holes were provided in the aluminum foil to ensure that the samples were sufficiently contacted with atmospheric air. The vial in which the sample was placed under strong light was placed open without sealing with aluminum foil. The samples placed under different conditions were taken and tested for XRPD spectrum on day 5 and day 10.

[2] = Hygroscopicity by dynamic vapor sorption (DVS); format: physicochemical
Experimental: Instrument: SMS DVS Advantage;
The DVS parameters are as follows:
Balancing: dm/dt=0.01%/min (shortest: 10 min, longest: 180 min)
drying: drying at 0% RH for 120 min
RH (%) test gradient: 10%
Range of RH (%) test gradient: 0%-90%-0%

[3] = Stability of crystalline form suspended in organic solvent (XRPD); format: physicochemical; conditions: methanol, ethanol, ethyl acetate, acetone, acetonitrile, tetrahydrofuran, 1,4-dioxane, n-hexane; 20° C. and 50° C., 24 h
Experimental: After being added with methanol (4 mL), the glass vial was placed on a magnetic stirrer, and the mixture was stirred at 20° C. and 50° C., each for 24 h.
According to the above method, ethanol, ethyl acetate, acetone, acetonitrile, tetrahydrofuran, 1,4-dioxane and n-hexane were used as solvents to conduct parallel tests.

AKT phosphorylation = assay: In vitro test of inhibition on AKT phosphorylation in IgM-stimulated Ramos cells (ELISA); format: cell-based; conditions: anti-human IgM stimulation
Source text: 5.1 Purpose of experiment: to detect the protein kinase AKT phosphorylation in cells by enzyme-linked immunosorbent assay (ELISA), and evaluate the inhibition of the compound on the AKT phosphorylation by taking the half-inhibitory concentration (IC50) value of the compound as an index. […]

| SMILES | Crystalline form ([1]; Day 0 (initial), XRPD) | Crystalline form ([1]; High humidity (room temperature/relative humidity 92.5%, open), Day 5, XRPD) | Crystalline form ([1]; High humidity (room temperature/relative humidity 92.5%, open), Day 10, XRPD) | Crystalline form ([1]; High temperature (60° C., open), Day 5, XRPD) | Crystalline form ([1]; High temperature (60° C., open), Day 10, XRPD) | Crystalline form ([1]; Illumination (total illuminance of 1.2 × 10^6 Lux·hr/near UV energy of 200 w·hr/m^2, open), XRPD) | Stability under high temperature, high humidity and illumination ([1]; overall conclusion) | ΔW (DVS weight gain) ([2]; 25° C., RH 0%-90%-0%) [%] | Hygroscopicity ([2]; 25±1° C. and 80±2% RH) | XRPD spectrum after suspension in solvent [3] | IC50 (AKT phosphorylation) [µM] |
| --- | --- | --- | --- | --- | --- | --- | --- | --- | --- | --- | --- |
| Cn1c(=O)c(Nc2ccc(N3CCN(C4COC4)CC3)cn2)cc2c(F)c(-c3cc[nH]n3)ccc21 [5-fluoro-1-methyl-3-((5-(4-(oxetan-3-yl)piperazin-1-yl)pyridin-2-yl)amino)-6-(1H-pyrazol-3-yl)quinolin-2(1H)-one hydrochloride] | Form A crystal | Form A crystal | Form A crystal | Form A crystal | Form A crystal | Form A crystal | good stability | 1.371 | less hygroscopic | doesn't change |  |
| Cn1c(=O)c(Nc2ccc(N3CCN(C4COC4)CC3)cn2)cc2c(F)c(-c3cc[nH]n3)ccc21 [Compound of formula I, 5-fluoro-1-methyl-3-((5-(4-(oxetan-3-yl)piperazin-1-yl)pyridin-2-yl)amino)-6-(1H-pyrazol-3-yl)quinolin-2(1H)-one] |  |  |  |  |  |  |  |  |  |  | 0.17 |
